US9539270B2, “Methods for providing sialylated oligosaccharides” (priority 2011, dated 2017)

Target: T1, Trypanosoma cruzi trans-sialidase (TcTS) (Trypanosoma cruzi, UniProt Q26966)
T1 construct: 6xHis (N); made in house; host or cells: E. coli TOP10 or BL21(DE3)
Test: Affinity of TcTS for the sialic acid donor substrates (kinetic incubations with lactose as acceptor)
Type: biochemical
Details: TcTS 4.5 mU/ml; 0.1-10.0 mM 4MU-Neu5Ac as donor; 1 mM lactose as acceptor
Method: In kinetic experiments with partially purified TcTS, 4MU-Neu5Ac or industrially available κ-casein-derived glycomacropeptide (GMP) as donors and lactose as acceptor, the formation of 3′SL was quantitatively determined after 15 and 30 min of incubation, making use of high-pH anion-exchange chromatography with pulsed amperometric detection (HPAEC-PAD). For both donors, the optimal temperature for the transfer reaction, deduced from a series of temperatures ranging from 15-50° C., with increments of 5° C., turned out to be 25° C., which is similar to the optimal temperature reported in literature (Scudder et al., J. Biol. Chem. 268: 9886-9891, 1993).
The affinity of TcTS for the sialic acid donor substrates 4MU-Neu5Ac and GMP was tested by performing incubations (4.5 mU/ml) with an appropriate range of these substrates and a fixed concentration of lactose as acceptor.

T1 sequence (Q26966 entry or part of it): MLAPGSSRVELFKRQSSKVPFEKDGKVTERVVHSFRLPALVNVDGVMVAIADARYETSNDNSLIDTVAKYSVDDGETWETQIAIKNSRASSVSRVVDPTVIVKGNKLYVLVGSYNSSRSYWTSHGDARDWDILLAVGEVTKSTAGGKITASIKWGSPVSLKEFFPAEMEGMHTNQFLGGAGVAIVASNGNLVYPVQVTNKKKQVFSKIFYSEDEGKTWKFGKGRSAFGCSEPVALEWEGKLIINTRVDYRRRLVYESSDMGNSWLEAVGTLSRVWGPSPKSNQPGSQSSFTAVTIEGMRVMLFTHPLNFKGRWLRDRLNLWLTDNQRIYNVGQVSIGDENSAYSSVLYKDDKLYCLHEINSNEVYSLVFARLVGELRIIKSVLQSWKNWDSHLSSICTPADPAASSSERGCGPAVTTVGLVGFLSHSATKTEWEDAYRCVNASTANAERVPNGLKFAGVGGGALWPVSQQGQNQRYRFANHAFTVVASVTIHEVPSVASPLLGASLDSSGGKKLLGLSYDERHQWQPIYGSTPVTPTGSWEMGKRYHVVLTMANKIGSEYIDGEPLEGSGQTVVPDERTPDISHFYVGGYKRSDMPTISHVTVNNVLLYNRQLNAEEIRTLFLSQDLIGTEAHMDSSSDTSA

CC(=O)N[C@H]1[C@H]([C@H](O)[C@H](O)CO)OC(Oc2ccc3c(C)cc(=O)oc3c2)(C(=O)O)C[C@@H]1O (stereo partly drawn) [4MU-Neu5Ac, 2′-(4-methylumbelliferyl)-α-N-acetylneuraminic acid]
Km: 1650 µM | Vmax: 1.5 U/mg
